From US20260207570A1, “OPTIMIZED DOSING OF LERIGLITAZONE” (MINORYX THERAPEUTICS S.L., priority 2022, published 2026)

Tests used:
[1] = Phase 1 safety and tolerability (treatment-emergent adverse events); assay type: in vivo, human
Method: Study design: A phase 1, randomized, double blind, placebo-controlled, single-center clinical study in 33 male healthy volunteers (HV) (19-54 years, 63.2-95.7 Kg) was conducted with leriglitazone HCl and divided in two parts: a single ascending dose (SAD) with three dose levels (30, 90 and 270 mg) in fasted conditions, followed with two dose levels (90 and 270 mg) in fed conditions; a multiple ascending dose (MAD) with a double-blind, parallel-design with two dose levels (135 and 270 mg) for 8 days and a separate cohort of subjects in an open-label parallel design with two dose levels (135 and 270 mg) including cerebrospinal fluid (CSF) collection on day 8. In the fasted conditions a fasting period of at least 4 hours was required before obtaining plasma samples. The food effect (FE) was assessed by comparing fasted with fed conditions (dosing after a high-fat breakfast per FDA definition with a calculated caloric content of 918 kcal). In the MAD part (fed) the medication was taken before a normal breakfast. Leriglitazone HCl was supplied by ChemConnection and an oral suspension of leriglitazone (20% w/v kleptose, 2% ethanol in 100 mM phosphate buffer pH=7.8) at 6 mg/ml was used in the study. Safety: Safety and tolerability assessments consisted of adverse events (AEs), clinical laboratory, vital signs, 12-lead electrocardiogram (ECG), and physical examination.

[2] = substrate: CC(O)c1ccc(CCOc2ccc(CC3SC(=O)NC3=O)cc2)nc1; test: Metabolism kinetics with recombinant CYP2C8; assay type: in vitro ADME, human
Text: CYP2C8 and CYP3A4 were identified in vitro as the major contributing enzymes of leriglitazone with CYP2C8 mostly responsible for the formation of the main metabolite M3. Kinetic parameters of human CYP2C8 and CYP3A4 mediated metabolism of leriglitazone were studied in in vitro studies using recombinant CYP3A4 and CYP2C8 enzymes (ADMESCOPE, Finland). […] As the disappearance of leriglitazone was very slow especially at high initial concentrations, the accuracy of the fit was not as good as based on M3 formation. […] Thus, it was not possible to fit the kinetic parameters Km and Vmax.

[3] = phase 1, healthy male volunteers
[4] = other: recombinant CYP2C8, based on M3 formation
[5] = other: recombinant CYP2C8, based on leriglitazone depletion

## CC(O)c1ccc(CCOc2ccc(CC3SC(=O)NC3=O)cc2)nc1.Cl (centres unmarked) [leriglitazone HCl, 5-[[4-[2-[5-(1-hydroxyethyl)pyridin-2-yl]ethoxy]phenyl]methyl]-1,3-thiazolidine-2,4-dione hydrochloride]
[1]; phase 1, healthy male subjects
  clinical laboratory evaluations, vital signs, ECGs and physical examinations: No clinically significant changes from baseline
[1]; [3]
  serious AEs: no serious AEs reported
  severity of treatment-emergent adverse events: of mild severity
[1]; single and multiple doses, healthy male subjects
  safety and tolerability: safe and well tolerated

B1: human CYP2C8 (Homo sapiens) (protein)
chain: MEPFVVLVLCLSFMLLFSLWRQSCRRRKLPPGPTPLPIIGNMLQIDVKDICKSFTNFSKVYGPVFTVYFGMNPIVVFHGYEAVKEALIDNGEEFSGRGNSPISQRITKGLGIISSNGKRWKEIRRFSLTTLRNFGMGKRSIEDRVQEEAHCLVEELRKTKASPCDPTFILGCAPCNVICSVVFQKRFDYKDQNFLTLMKRFNENFRILNSPWIQVCNNFPLLIDCFPGTHNKVLKNVALTRSYIREKVKEHQASLDVNNPRDFIDCFLIKMEQEKDNQKSEFNIENLVGTVADLFVAGTETTSTTLRYGLLLLLKHPEVTAKVQEEIDHVIGRHRSPCMQDRSHMPYTDAVVHEIQRYSDLVPTGVPHAVTTDTKFRNYLIPKGTTIMALLTSVLHDDKEFPNPNIFDPGHFLDKNGNFKKSDYFMPFSAGKRICAGEGLARMELFLFLTTILQNFNLKSVDDLKNLNTTAVTKGIVSLPPSYQICFIPV
notes: purchased ADMESCOPE, Finland
[2]; [4]
  Km: 34.0 µM
  kcat: 2.27 pmol/min/pmol CYP
[2]; [5]
  Km: 13.7 µM
  kcat: 1.60 pmol/min/pmol CYP
